Data on 16 molecules can be found in PMC10641813 (Journal of Medicinal Chemistry, 2023).

Several values for one entry are separate records, joined by “and”; a condition that tells them apart may be missing. Equal entries are not always repeated. Where two headings read alike, the source gives them in different places.

Series [1] concerns tubulin. The settings on record: tubulin assembly; read-out: Tubulin IC50 ± SD; cited from earlier work.
Series [2] concerns tubulin. The conditions noted are these: cited from earlier work.
For series [3], the system named is NCI/ADR-RES cells. Also noted: method as in PMID 22044164. The conditions noted are these: DOX-resistant cell line; cited from earlier work.
The target in the next series is T1, hCA I (Homo sapiens, UniProt P00915).
T1 construct: made in house
Nature of the series: Stopped flow CO2 hydrase assay, hCA I. The series is classed as biochemical. The settings on record: for Ki: stopped flow technique, mean from three assays; for fold reduction in the inhibition of hCA I: relative to 11 (sulfonamide at para position).

For a further series, the target named is T2, hCA II (Homo sapiens, UniProt P00918).
T2 construct: made in house
Briefly: Stopped flow CO2 hydrase assay, hCA II. The settings on record: stopped flow technique, mean from three assays. The series is classed as biochemical.

A further series has as its target T3, hCA IX (Homo sapiens, UniProt Q16790).
T3 construct: made in house
Briefly: Stopped flow CO2 hydrase assay, hCA IX. The series is classed as biochemical.

A further series deals with T4, hCA XII (Homo sapiens, UniProt O43570).
T4 construct: made in house
Nature of the series: Stopped flow CO2 hydrase assay, hCA XII. The series is classed as biochemical. The settings on record: stopped flow technique, mean from three assays.

Series [4] has as its system tubulin. Briefly: Tubulin assembly (polymerization) assay. The series is classed as biochemical. The conditions noted are these: at 20 μM.
Procedure: The reaction mixtures contained 0.8 M monosodium glutamate (pH 6.6 with HCl in a 2 M stock solution), 10 μM tubulin, 4% (v/v) DMSO, and varying concentrations of compound. […] The extent of the reaction was measured.
For the next series, the system named is MCF-7 cells. Briefly: Inhibition of growth of MCF-7 cells. The series is classed as cell-based, human. The protocol: (§1) ; 11 and 15, NCI/ADR-RES and OVCAR-8 cells) to 4.8 (19, OVCAR-8 cells). […] . […] Cells were seeded in 96-well plates.
The subject of another series is OVCAR-8 cells. Briefly: Inhibition of growth of OVCAR-8 cells. The series is classed as cell-based, human. The settings on record: ovarian tumor cell line 8, 96 h. How it is done: as §1
The subject of series [5] is NCI/ADR-RES cells. Nature of the series: Inhibition of growth of NCI/ADR-RES DOX-resistant cells. The series is classed as cell-based, human. The settings on record: for IC50: DOX-resistant cell line derived from OVCAR-8, 96 h. The protocol:
as §1

The next series relates to SW480 cells. Nature of the series: Inhibition of growth of SW480 cells (XTT). The conditions noted are these: read-out: IC50 SW480; human colorectal carcinoma cells; combinations: each compound at its IC50 concentration.
A further series concerns SW620 cells. Briefly: Inhibition of growth of SW620 cells (XTT). The settings on record: read-out: IC50 SW620; human colorectal carcinoma cells; combinations: each compound at its IC50 concentration. A general note: Tetrazolium assays rely on reduction of a dye to a coloured formazan, in cell work by metabolically active cells.
The next series deals with HCT116 cells. Nature of the series: Inhibition of growth of HCT116 cells (MTT). The settings on record: read-out: IC50 HCT116; human colorectal carcinoma cells; combinations: each compound at its IC50 concentration.
The subject of another series is HT29/DX cells. Nature of the series: Viability of HT29/DX cells with DOX alone or coincubated with 15 (WST-1). The series is classed as cell-based, human. The settings on record: 5 μM DOX alone, 72 h. The protocol: (§2) Cells were seeded in 96-well plates.
Series [6] can be described thus: Viability of MDCK cells with DOX alone or coincubated with 15 (WST-1). The series is classed as cell-based, canine. The conditions noted are these: dog, MDCK cells (sensitive, parental); read-out: cell viability. The protocol: as §2
Another series has as its system MDCK/P-gp cells. Briefly: Viability of MDCK/P-gp cells with DOX alone or coincubated with 15 (WST-1). The series is classed as cell-based, canine. The conditions noted are these: 5 μM DOX alone, 72 h. How it is done: as §2
Where [7] appears, read: stopped flow technique, mean from three assays.
[8] abbreviates: human nonmetastatic breast cancer epithelial cells.

T4 sequence (O43570 25-354): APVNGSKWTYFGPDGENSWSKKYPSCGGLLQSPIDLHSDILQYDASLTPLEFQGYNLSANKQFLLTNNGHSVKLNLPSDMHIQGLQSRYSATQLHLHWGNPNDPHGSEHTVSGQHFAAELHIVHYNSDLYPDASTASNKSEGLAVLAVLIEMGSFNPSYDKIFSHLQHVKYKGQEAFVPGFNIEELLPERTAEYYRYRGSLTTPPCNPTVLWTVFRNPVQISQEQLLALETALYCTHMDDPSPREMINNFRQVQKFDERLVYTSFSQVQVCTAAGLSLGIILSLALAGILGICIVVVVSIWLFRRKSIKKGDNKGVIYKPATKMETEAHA
T1 sequence (P00915 whole entry): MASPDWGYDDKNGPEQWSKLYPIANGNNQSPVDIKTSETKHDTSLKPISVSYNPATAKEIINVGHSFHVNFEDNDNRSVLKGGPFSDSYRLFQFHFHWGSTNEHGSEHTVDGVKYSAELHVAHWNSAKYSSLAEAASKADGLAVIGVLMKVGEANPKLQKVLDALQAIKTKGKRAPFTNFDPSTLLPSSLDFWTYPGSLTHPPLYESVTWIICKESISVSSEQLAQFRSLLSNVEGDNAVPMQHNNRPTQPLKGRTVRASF
Procedure for HCT116 cells: (§3) In drug combination studies, each compound was used at the corresponding IC50 concentration.
(§4) Cells were grown in Dulbecco’s modified Eagle’s medium (D-MEM) supplemented with 10% fetal bovine serum (FBS) at 37 °C with 5% CO2. In all experiments, 300,000 cells were plated in 9 cm^2 dishes and exposed to test compound dissolved in DMSO (0.1% final concentration) at the indicated concentrations. […] Cells were kept at low passage, returning to the original frozen stocks every 3–4 months.
Procedure for SW480 cells: as §3, §4
Procedure for SW620 cells: as §3, §4

One may read the IC50 as the midpoint of a concentration-inhibition curve. In the case of `COc1cc(C(=O)c2ccn(-c3ccccc3)c2)cc(OC)c1OC` [Compound 2], the IC50 with tubulin [1] was 1.5 µM. Besides, in the series on tubulin [2], the “inhibition of colchicine binding” value was 81%.
`CCC1=C[C@@H]2CN(C1)Cc1c([nH]c3ccccc13)[C@@](C(=O)OC)(c1cc3c(cc1OC)N(C)[C@H]1[C@@](O)(C(=O)OC)[C@H](OC(C)=O)[C@]4(CC)C=CCN5CC[C@]31[C@@H]54)C2` [vinorelbine]: the half-maximal inhibitory concentration (IC50) in the series on NCI/ADR-RES cells [3] was 5 ± 1 µM.
The Ki is the equilibrium dissociation constant of an inhibitor or competing ligand from its target. High values mean a looser hold on the target, low ones a stronger hold on the target. For the molecule `COc1cc(C(=O)c2cn(-c3cccc(S(N)(=O)=O)c3)c3ccccc23)cc(OC)c1OC` [Compound 20, 3-(3-(3,4,5-Trimethoxybenzoyl)-1H-indol-1-yl)benzenesulfonamide], the Ki on hCA I is 0.943 µM; on hCA II, 0.229 µM; on hCA IX (setting [7]) it was 0.069 µM; on hCA XII, 0.0581 µM.
Take `COc1cc(C(=O)c2cn(-c3cccc(S(N)(=O)=O)c3)cc2-c2ccccc2)cc(OC)c1OC` [Compound 16, 3-(3-Phenyl-4-(3,4,5-trimethoxybenzoyl)-1H-pyrrol-1-yl)benzenesulfonamide]: the Ki on hCA I stood at 1.03 µM; on hCA II, 0.186 µM; at hCA IX (setting [7]), 0.0391 µM; at hCA XII, 0.0289 µM.
In the case of `COc1cc(C(=O)c2cn(-c3ccc(S(N)(=O)=O)cc3)c3ccccc23)cc(OC)c1OC` [Compound 19, 4-(3-(3,4,5-Trimethoxybenzoyl)-1H-indol-1-yl)benzenesulfonamide], the Ki amounted to 0.446 µM at hCA I, 0.0678 µM at hCA II and 0.0073 µM on hCA IX. Also, the “inhibition of tubulin assembly” value in the series with tubulin [4] is reported as “partial inhibition”. Also, the IC50 in the series on MCF-7 cells (setting [8]) is 3.6 ± 1 µM; with OVCAR-8 cells, 4.8 ± 0.3 µM; in the series on NCI/ADR-RES cells [5], 2.1 ± 0.2 µM; in the series on SW480 cells, 37.4 ± 1.4 µM; in the series on SW620 cells it was 45.4 ± 1.7 µM; in the series with HCT116 cells it was 14.9 ± 1.3 µM.
Broadly, the EC50 is the midpoint of the concentration-response curve. Turning to `COc1cc(C(=O)c2ccn(-c3cccc(S(N)(=O)=O)c3)c2)cc(OC)c1OC` [Compound 12, 3-(3-(3,4,5-Trimethoxybenzoyl)-1H-pyrrol-1-yl)benzenesulfonamide], on hCA I, the “fold reduction in the inhibition of hCA I” value is recorded as 6.7 fold. The Ki at hCA I stood at 0.644 µM; on hCA II it was 0.0842 µM; at hCA IX (setting [7]), 0.0347 µM; on hCA XII, 0.0213 µM. The EC50 in the series on NCI/ADR-RES cells [5] (Homo sapiens, NCI/ADR-RES, DOX-resistant cell line) was 2.1 to 2.2 µM.
`COc1ccc(/C=C\c2cc(OC)c(OC)c(OC)c2)cc1O` [CSA4, combretastatin A-4, reference compound]: the midpoint of inhibition in the series on MCF-7 cells (Homo sapiens, MCF7, reference compound in the MCF-7 assay), the IC50, lay at 0.015 µM.
Regarding `COc1cc(C(=O)c2cn(-c3ccccc3)cc2-c2ccccc2)cc(OC)c1OC` [Compound 3], the 50% inhibitory concentration (IC50) in the series with tubulin [1] is 1.1 µM. Moreover, in the series on tubulin [2], the “inhibition of colchicine binding” value was 66%.
For “4-(3-(3,4,5-trimethoxybenzoyl)-1H-pyrrol-1-yl)benzenesulfonamide [Compound 11]”, on hCA XII, the affinity, expressed as Ki, was 0.0115 µM. Moreover, in the series on tubulin [4], the “inhibition of tubulin assembly” value is recorded as “did not inhibit tubulin assembly”. In addition, the concentration for half-maximal inhibition (IC50) was 3.9 ± 0.08 µM in the series with MCF-7 cells (setting [8]); 1.9 ± 0.07 µM with OVCAR-8 cells; 1.9 µM and 2.2 µM in the series with NCI/ADR-RES cells [5].
With `COc1cc(C(=O)c2cn(-c3ccccc3S(N)(=O)=O)cc2-c2ccccc2)cc(OC)c1OC` [Compound 17, 2-(3-Phenyl-4-(3,4,5-trimethoxybenzoyl)-1H-pyrrol-1-yl)benzenesulfonamide], the Ki on hCA I is greater than 10 µM; on hCA II, greater than 10 µM; on hCA IX (setting [7]) it was 8.86 µM; at hCA XII, 1 µM.
For “4-(3-Benzoyl-4-phenyl-1H-pyrrol-1-yl)benzenesulfonamide [Compound 14]”, the Ki at hCA IX (setting [7]) worked out at 0.0386 µM; at hCA XII it was 0.0594 µM.
`COc1cc(C(=O)c2ccn(-c3ccccc3S(N)(=O)=O)c2)cc(OC)c1OC` [Compound 13, 2-(3-(3,4,5-Trimethoxybenzoyl)-1H-pyrrol-1-yl)benzenesulfonamide]: the “fold reduction in the inhibition of hCA I” value on hCA I was 61.0 fold. In addition, the Ki on hCA I was found to be 5.84 µM; at hCA II, 0.888 µM; at hCA IX (setting [7]), 0.229 µM; on hCA XII it was 0.425 µM.
By viability is commonly meant a per cent measure of how many cells are alive, often set against a control. Turning to `COc1cccc2c1C(=O)c1c(O)c3c(c(O)c1C2=O)C[C@@](O)(C(=O)CO)C[C@@H]3O[C@H]1C[C@H](N)[C@H](O)[C@H](C)O1` [DOX, doxorubicin, reference compound], the cell viability result in the series on HT29/DX cells and with MDCK/P-gp cells was “did not affect the viability” throughout. Also, the viability at 72 h, 5 μM in series [6] is less than 30%.
With “4-(3-Benzoyl-1H-indol-1-yl)benzenesulfonamide [Compound 18]”, the Ki at hCA IX is 0.0316 µM; at hCA XII, 0.052 µM.
Regarding “4-(3-Benzoyl-1H-pyrrol-1-yl)benzenesulfonamide [Compound 10]”, the Ki on hCA IX (setting [7]) is 0.066 µM; at hCA XII, 0.0471 µM.
As to `COc1cc(C(=O)c2cn(-c3ccccc3S(N)(=O)=O)c3ccccc23)cc(OC)c1OC` [Compound 21, 2-(3-(3,4,5-Trimethoxybenzoyl)-1H-indol-1-yl)benzenesulfonamide], the inhibition constant Ki at hCA I was greater than 10 µM; at hCA II it was greater than 10 µM; on hCA IX (setting [7]) it was 7.75 µM; at hCA XII it was 1.19 µM.
